Test results from article PMC7391767, “Molecular mechanisms underlying menthol binding and activation of TRPM8 ion channel” (Nature Communications, 2020).

Tested on: ANAP-incorporated TRPM8 mutants
Assay: patch-clamp test of function of ANAP-incorporated TRPM8 mutants
Assay type: cell-based, mouse
Details: Menthol 1 mM
Description: L-ANAP methyl ester was purchased from AsisChem. pANAP vector was purchased from Addgene. ANAP was incorporated into TRPM8 by introducing a TAG amber stop codon mutation as previously reported. Briefly, after co-transfection of both TRPM8 and pANAP vectors, ANAP was directly added to the culture medium to the final concentration of 20 µM. After 1–2 days, ANAP-containing culture medium was completely changed. Cells were further cultured in ANAP-free medium overnight before experiments.
Patch-clamp recordings were performed with a HEKA EPC10 amplifier controlled by PatchMaster software (HEKA). Whole-cell recordings were performed at ±80 mV. Patch pipettes were prepared from borosilicate glass and fire-polished to resistance of ~4 MΩ. For whole-cell recording, serial resistance was compensated by 60%. For single-channel recordings, patch pipettes were fire-polished to a higher resistance of 6-to-10 MΩ and then recorded in the inside-out configuration. To maximize the chance of obtaining a patch with only one channel, single-channel recordings were performed about 8 h after transfection. A solution with 130 mM NaCl, 10 mM glucose, 0.2 mM EDTA, and 3 mM HEPES (pH 7.2) was used in both bath and pipette for either whole-cell or single-channel recordings. Membrane potential was clamped at +80 mV for single-channel recordings. Current was sampled at 10 kHz and filtered at 2.9 kHz. All recordings were performed at room temperature (22 °C) with the maximum variation of 1 °C.
Supplementary Table 1. ANAP- incorporated TRPM8 mutants. The function of these
ANAP- incorporated mutants was accessed by patch- clamp recordings. Menthol (1 mM)
was perfused to activate a mutant channel.

Measured: Menthol activation

CC(C)[C@@H]1CC[C@@H](C)C[C@H]1O [menthol, (−)-menthol]
YES: A875ANAP (S5) | D920ANAP (Between S5 and S6) | I962ANAP (S6) | L774ANAP (S2) | L817ANAP (S3) | L864ANAP (S5) | L939ANAP (Between S5 and S6) | N789ANAP (S2S3 linker) | N821ANAP (S3-S4 linker) | N852ANAP (S4) | N947ANAP (Between S5 and S6) | P734ANAP (S1) | P952ANAP (Between S5 and S6) | P958ANAP (Between S5 and S6) | S819ANAP (S3-S4 linker) | S820ANAP (S3-S4 linker) | S823ANAP (S3-S4 linker) | S824ANAP (S4) | S921ANAP (Between S5 and S6) | S966ANAP (S6) | T795ANAP (S2S3 linker) | V791ANAP (S2S3 linker) | V876ANAP (S5) | W954ANAP (Between S5 and S6) | Y787ANAP (S2) | Y808ANAP (S3)
